Results as given in the supplement of paper PMC10307832.

Columns and labels:
Assay in all cases: relative viability (nuclei count vs DMSO), 5 days (fraction); higher = more cells survive
[1] = compound: C1COCCN1C2=NC(=NC3=C2OC4=C3C=CC=N4)C5=CC(=CC=C5)NC(=O)C6=CN=C(C=C6)N + CC(=O)Nc1cccc(-n2c(=O)n(C3CC3)c(=O)c3c(Nc4ccc(I)cc4F)n(C)c(=O)c(C)c32)c1 [Trametinib] (partner 0.02 µM)
In short: (§1)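 Lung cancer cell lines in 1536-well plates got either a single drug or a fixed anchor-drug dose together with five library-drug doses (not always all listed) in √10 steps, by pin tool, on the day after seeding. Nuclei were counted after 5 days, and relative viability is the treated-to-vehicle ratio of nuclei counts. Values are medians of duplicate plates.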

[2] = compound: C1COCCN1C2=NC(=NC3=C2OC4=C3C=CC=N4)C5=CC(=CC=C5)NC(=O)C6=CN=C(C=C6)N + C[C@@H](Oc1cc(-c2cnn(C3CCNCC3)c2)cnc1N)c1c(Cl)ccc(F)c1Cl [Crizotinib] (partner 1 µM)
In short: as §1

SGI-1776 + Pictilisib = compound: CN1CCC(CNc2ccc3ncc(-c4cccc(OC(F)(F)F)c4)n3n2)CC1 [SGI-1776] + CS(=O)(=O)N1CCN(Cc2cc3nc(-c4cccc5[nH]ncc45)nc(N4CCOCC4)c3s2)CC1 [Pictilisib] (partner 1 µM)
In short: as §1

SGI-1776 + Olaparib = compound: CN1CCC(CNc2ccc3ncc(-c4cccc(OC(F)(F)F)c4)n3n2)CC1 [SGI-1776] + O=C(c1cc(Cc2n[nH]c(=O)c3ccccc23)ccc1F)N1CCN(C(=O)C2CC2)CC1 [Olaparib] (partner 8 µM)
In short: as §1

Row | Cell Line | relative viability ([1]; first compound 0.02 µM) | relative viability ([1]; first compound 0.06325 µM) | relative viability ([1]; first compound 0.2 µM) | relative viability ([1]; first compound 0.6325 µM) | relative viability ([1]; first compound 2 µM) | relative viability ([2]; first compound 0.02 µM) | relative viability ([2]; first compound 0.06325 µM) | relative viability ([2]; first compound 0.2 µM) | relative viability ([2]; first compound 0.6325 µM) | relative viability ([2]; first compound 2 µM) | relative viability (SGI-1776 + Pictilisib; first compound 0.08 µM) | relative viability (SGI-1776 + Pictilisib; first compound 0.8 µM) | relative viability (SGI-1776 + Pictilisib; first compound 2.53 µM) | relative viability (SGI-1776 + Pictilisib; first compound 8 µM) | relative viability (SGI-1776 + Olaparib; first compound 0.08 µM) | relative viability (SGI-1776 + Olaparib; first compound 0.8 µM) | relative viability (SGI-1776 + Olaparib; first compound 2.53 µM) | relative viability (SGI-1776 + Olaparib; first compound 8 µM)
1 | NCI-H520 | 0.493 | 0.806 | 0.758 | 0.528 | 0.494 | 0.925 | 0.775 | 0.803 | 0.756 | 0.443 | 0.319 | 0.323 | 0.225 | 0.204 | 0.36 | 0.318 | 0.386 | 0.203
2 | HCC-366 | 0.4 | 0.341 | 0.394 | 0.231 | 0.138 | 0.594 | 0.808 | 0.575 | 0.629 | 0.327 | 0.158 | 0.192 | 0.137 | 0.0802 | 0.347 | 0.449 | 0.379 | 0.294
3 | NCI-H2087 | 0.209 | 0.178 | 0.234 | 0.193 | 0.173 | 0.979 | 0.936 | 0.925 | 0.892 | 0.531 | 0.953 | 0.974 | 0.826 | 0.899 | 0.601 | 0.637 | 0.727 | 0.521
4 | PC-3 [JPC-3] | 0.65 | 0.696 | – | 0.843 | 0.659 | 0.961 | 1.02 | 1.02 | 1.04 | 0.64 | 0.72 | 0.779 | 0.768 | 0.478 | 1.13 | 1.14 | 1.11 | 0.797
5 | HOP-62 | 0.403 | 0.415 | 0.323 | 0.359 | 0.227 | 1.08 | 1.14 | 0.714 | 0.695 | 0.65 | 0.849 | 0.734 | 1.08 | 0.607 | 0.436 | 0.63 | 0.448 | 0.59
6 | NCI-H2126 | 0.592 | 0.569 | 0.618 | 0.547 | 0.45 | 1.04 | 1.09 | 1.06 | 1 | 0.645 | 0.499 | 0.534 | 0.501 | 0.468 | 0.99 | 0.936 | 0.911 | 0.91
7 | RERF-LC-KJ | 0.808 | 0.971 | 0.91 | 0.893 | 0.689 | 1.02 | 0.913 | 0.798 | 0.794 | 0.748 | 0.556 | 0.533 | 0.568 | 0.353 | 0.866 | 0.92 | 0.802 | 0.586
8 | H3255 | 0.703 | 0.588 | 0.604 | 0.663 | 0.421 | 0.729 | 0.805 | 0.758 | 0.844 | 0.586 | 0.479 | 0.451 | 0.456 | 0.392 | 0.563 | 0.595 | 0.646 | 0.529
9 | EMC-BAC-2 | 0.838 | 0.924 | 0.853 | 0.789 | 0.725 | 0.8 | 0.792 | 0.76 | 0.805 | 0.598 | 0.539 | 0.555 | 0.567 | 0.485 | 0.504 | 0.506 | 0.509 | 0.452
10 | CAL-12T | 0.28 | 0.324 | 0.272 | 0.354 | 0.303 | 0.843 | 0.634 | 0.688 | 0.559 | 0.507 | 0.559 | 0.592 | 0.341 | 0.385 | 0.713 | 0.738 | 0.833 | 0.696
11 | NCI-H661 | 0.607 | 0.631 | 0.534 | 0.599 | 0.436 | 1.16 | 1.27 | 0.971 | 1.12 | 0.932 | 0.526 | 0.429 | 0.363 | 0.317 | 0.733 | 0.754 | 0.843 | 0.846
12 | SK-MES-1 | 0.474 | 0.518 | 0.458 | 0.426 | 0.395 | 1.09 | 1.11 | 0.975 | 0.884 | 0.7 | 0.364 | 0.353 | 0.33 | 0.278 | 0.772 | 0.744 | 0.664 | 0.347
13 | NCI-H1437 | 0.492 | 0.551 | 0.511 | 0.419 | 0.224 | 0.95 | 1.11 | 0.827 | 0.964 | 0.401 | 0.435 | 0.517 | 0.367 | 0.219 | 0.65 | 0.618 | 0.6 | 0.552
14 | PC-14 | 0.758 | 0.932 | 0.682 | 0.633 | 0.229 | 1.01 | 1.07 | 0.865 | 0.784 | 0.396 | 0.667 | 0.681 | 0.747 | 0.195 | 0.285 | 0.367 | 0.305 | 0.114
15 | LK-2 | 0.787 | 0.798 | 0.637 | 0.583 | 0.426 | 0.21 | 0.247 | 0.203 | 0.279 | 0.258 | 0.504 | 0.563 | 0.47 | 0.308 | 0.783 | 0.768 | 0.717 | 0.579
16 | NCI-H1651 | 0.842 | 0.867 | 0.836 | 0.818 | 0.731 | 0.835 | 0.894 | 0.854 | 0.865 | 0.671 | 0.671 | 0.559 | 0.421 | 0.432 | 0.205 | 0.187 | 0.18 | 0.174
